Experimental data as given in article PMC11274883, “Anticancer Effect of Pt^[sequence], Pt^II5MESS, Pt^II56MESS and Their Platinum(IV)-Dihydroxy Derivatives against Triple-Negative Breast Cancer and Cisplatin-Resistant Colorectal Cancer” (Cancers, 2024).

Columns and labels:
Assay type in all cases: cell-based
[1] = test system: HT29 cells; test: TMRE mitochondrial membrane potential assay; details: complexes at IC50, FCCP 20 µM
In short: (§1)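 Cells treated with each complex at its IC50 concentration for 24, 48 or 72 h, then stained with 1 µM TMRE for 30 min and washed before fluorescence scanning. Three independent experiments in triplicate.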

[2] = test system: MDA−MB−231 cells; test: TMRE mitochondrial membrane potential assay; details: complexes at IC50, FCCP 20 µM
In short: as §1

[3] = test system: MCF−7; test: WST-1 cytotoxicity, 72 h; details: for IC50: mean ± SEM
In short: (§2)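 Cells were seeded at 1000 per well and exposed to compound for 72 h. Viability was then read with WST-1 (1 h, absorbance at 450 nm). Apparent IC50 values came from nonlinear regression of % survival across three experiments, each with n = 3.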

[4] = test system: MDA−MB−231; test: WST-1 cytotoxicity, 72 h; details: for IC50: mean ± SEM
In short: as §2

[5] = test system: ADDP; test: WST-1 cytotoxicity, 72 h; details: for IC50: mean ± SEM
In short: as §2

[6] = test system: HT29 cells; test: Cellular uptake of Pt by ICP-MS; details: for Intracellular Concentration: HT29, 3 µM; for Intracellular/extracellular ratio: HT29, extracellular 3 µM
In short: (§3)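 HT29 and MDA-MB-231 cells (10^6/well) exposed to 3 µM Pt(II) or Pt(IV) complex for 0–30 h, washed with cold PBS, digested in 69% HNO3. Pt measured by ICP-MS with ^193Ir internal standard against external standards; given as nmol/10^6 cells or µM/cell, mean ±SEM of three experiments in triplicate.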

[7] = test system: MDA−MB−231 cells; test: Cellular uptake of Pt by ICP-MS; details: for Intracellular Concentration: MDA−MB−231, 3 µM; for Intracellular/extracellular ratio: MDA−MB−231, extracellular 3 µM
In short: as §3

With N.N.[Cl][Pt][Cl] [Cisplatin, cisplatin] the “MtMp (mitochondrial membrane potential)” value ([1]; HT29, 24 h) was 270.02 RFU, the “MtMp (mitochondrial membrane potential)” value ([1]; HT29, 48 h) was 237.68 RFU and the “MtMp (mitochondrial membrane potential)” value ([1]; HT29, 72 h) was 188.59 RFU. The “MtMp (mitochondrial membrane potential)” value ([2]; MDA−MB−231, 24 h) was 208.24 RFU, the “MtMp (mitochondrial membrane potential)” value ([2]; MDA−MB−231, 48 h) was 177.91 RFU and the “MtMp (mitochondrial membrane potential)” value ([2]; MDA−MB−231, 72 h) was 154.83 RFU. For the same compound, the IC50 ([3]; MCF−7, 72 h) was 33 ± 1.35 µM, the IC50 ([4]; MDA−MB−231, 72 h) was 13.1 ± 1.36 µM and the IC50 ([5]; ADDP, 72 h) was 112 ± 2.02 µM. For the same compound, the “Intracellular Concentration” value ([6]; 0 h) was 0.36 nmol/10^6 cells, the “Intracellular Concentration” value ([6]; 0.5 h) was 0.94 nmol/10^6 cells and the “Intracellular Concentration” value ([6]; 1 h) was 0.14 nmol/10^6 cells. For the same compound, the “Intracellular Concentration” value ([6]; 3 h) was 0.28 nmol/10^6 cells, the “Intracellular Concentration” value ([6]; 6 h) was 0.10 nmol/10^6 cells and the “Intracellular Concentration” value ([6]; 12 h) was 0.57 nmol/10^6 cells. For the same compound, the “Intracellular Concentration” value ([6]; 24 h) was 1.02 nmol/10^6 cells, the “Intracellular Concentration” value ([6]; 30 h) was 0.71 nmol/10^6 cells and the “Intracellular Concentration” value ([7]; 0 h) was 0.56 nmol/10^6 cells. For the same compound, the “Intracellular Concentration” value ([7]; 0.5 h) was 0.15 nmol/10^6 cells, the “Intracellular Concentration” value ([7]; 1 h) was 0.14 nmol/10^6 cells and the “Intracellular Concentration” value ([7]; 3 h) was 0.12 nmol/10^6 cells. For the same compound, the “Intracellular Concentration” value ([7]; 6 h) was 0.18 nmol/10^6 cells, the “Intracellular Concentration” value ([7]; 12 h) was 0.19 nmol/10^6 cells and the “Intracellular Concentration” value ([7]; 24 h) was 0.24 nmol/10^6 cells. For the same compound, the “Intracellular Concentration” value ([7]; 30 h) was 1.29 nmol/10^6 cells.
With N[C@H]1CCCC[C@@H]1N.O=[N+]([O-])[O-].O=[N+]([O-])[O-].[OH-].[OH-].[Pt+4].c1cnc2c(c1)ccc1cccnc12 [[Pt(1,10-phenanthroline)(1S,2S-diaminocyclohexane)(dihydroxy)](NO3)2] the “MtMp (mitochondrial membrane potential)” value ([1]; HT29, 24 h) was 312.19 RFU, the “MtMp (mitochondrial membrane potential)” value ([1]; HT29, 48 h) was 261.95 RFU and the “MtMp (mitochondrial membrane potential)” value ([1]; HT29, 72 h) was 215.58 RFU. The “MtMp (mitochondrial membrane potential)” value ([2]; MDA−MB−231, 24 h) was 297.56 RFU, the “MtMp (mitochondrial membrane potential)” value ([2]; MDA−MB−231, 48 h) was 257.95 RFU and the “MtMp (mitochondrial membrane potential)” value ([2]; MDA−MB−231, 72 h) was 179.38 RFU. The “Selective cytotoxicity index (SCI)” value ([3]; IC50 MCF10A/IC50 MCF−7) was 2.18, the “potency relative to cisplatin” value ([3]; MCF−7, 72 h) was 3 fold and the IC50 ([3]; MCF−7, 72 h) was 9.39 ± 1.26 µM. For the same compound, the “Selective cytotoxicity index (SCI)” value ([4]; IC50 MCF10A/IC50 MDA−MB−231) was 6.13, the “potency relative to cisplatin” value ([4]; MDA−MB−231, 72 h) was 4 fold and the IC50 ([4]; MDA−MB−231, 72 h) was 3.34 ± 1.37 µM. The “potency relative to cisplatin” value ([5]; ADDP, 72 h) was 8 fold, the IC50 ([5]; ADDP, 72 h) was 13.6 ± 1.57 µM and the “Selective cytotoxicity index (SCI)” value ([5]; IC50 MCF10A/IC50 ADDP) was 1.49. For the same compound, the “Intracellular Concentration” value ([6]; 0 h) was 0.10 nmol/10^6 cells, the “Intracellular Concentration” value ([6]; 0.5 h) was 0.10 nmol/10^6 cells and the “Intracellular Concentration” value ([6]; 1 h) was 0.18 nmol/10^6 cells. For the same compound, the “Intracellular Concentration” value ([6]; 3 h) was 0.33 nmol/10^6 cells, the “Intracellular Concentration” value ([6]; 6 h) was 0.77 nmol/10^6 cells and the “Intracellular Concentration” value ([6]; 12 h) was 3.64 nmol/10^6 cells. The “Intracellular Concentration” value ([6]; 24 h) was 5.18 nmol/10^6 cells, the “Intracellular Concentration” value ([6]; 30 h) was 5.79 nmol/10^6 cells and the Intracellular/extracellular ratio ([6]; 0 h) was 16.45. The Intracellular/extracellular ratio ([6]; 0.5 h) was 15.93, the Intracellular/extracellular ratio ([6]; 1 h) was 28.08 and the Intracellular/extracellular ratio ([6]; 3 h) was 51.34. The Intracellular/extracellular ratio ([6]; 6 h) was 121.19, the Intracellular/extracellular ratio ([6]; 12 h) was 571.26 and the Intracellular/extracellular ratio ([6]; 24 h) was 813.09. The Intracellular/extracellular ratio ([6]; 30 h) was 909.81, the “Intracellular Concentration” value ([7]; 0 h) was 0.13 nmol/10^6 cells and the “Intracellular Concentration” value ([7]; 0.5 h) was 0.13 nmol/10^6 cells. The “Intracellular Concentration” value ([7]; 1 h) was 0.223 nmol/10^6 cells, the “Intracellular Concentration” value ([7]; 3 h) was 0.16 nmol/10^6 cells and the “Intracellular Concentration” value ([7]; 6 h) was 0.25 nmol/10^6 cells. For the same compound, the “Intracellular Concentration” value ([7]; 12 h) was 0.63 nmol/10^6 cells, the “Intracellular Concentration” value ([7]; 24 h) was 0.78 nmol/10^6 cells and the “Intracellular Concentration” value ([7]; 30 h) was 1.29 nmol/10^6 cells. The Intracellular/extracellular ratio ([7]; 0 h) was 21.21, the Intracellular/extracellular ratio ([7]; 0.5 h) was 20.07 and the Intracellular/extracellular ratio ([7]; 1 h) was 35.47. The Intracellular/extracellular ratio ([7]; 3 h) was 26.14, the Intracellular/extracellular ratio ([7]; 6 h) was 38.82 and the Intracellular/extracellular ratio ([7]; 12 h) was 98.56. It also gave an Intracellular/extracellular ratio ([7]; 24 h) of 123.87 and an Intracellular/extracellular ratio ([7]; 30 h) of 203.38.
